This is an account of results in paper PMC5478271, “Chemical structure-guided design of dynapyrazoles, cell-permeable dynein inhibitors with a unique mode of action” (eLife, 2017).

Assay [1] has as its target T1, GFP-dynein 1 (Homo sapiens, UniProt Q14204).
T1 construct: (AA 1320–4646 with additional valine [at position 4647], uniprot Q14204); protein A tag (followed by TEV-cleavable linker) (N, cleaved yes); made in house; host or cells: insect cells (baculovirus)
Briefly: Basal ATPase activity of GFP-dynein 1. Particulars: 40 µM compound, 1 mM MgATP, 2% DMSO; control 0.62 ± 0.2 s^−1. The class given is biochemical. The procedure:
ATPase assays using recombinant Dynein 1 (wild-type and mutants) were performed in a buffer containing 25 mM PIPES pH7.0, 30 mM KCl, 1 mM EGTA, 5 mM MgCl2, 0.01% triton X-100, 1 mM DTT, and 20–30 µM taxol (if microtubules were present). For typical conditions, enzyme was incubated with varying concentrations of inhibitor in buffer containing 2% DMSO for 10 min in a volume of 10 μL. When microtubules were present, they were polymerized by stepwise addition of taxol and high concentrations of DMSO (30% final during polymerization reactions), and re-suspended following centrifugation in ATPase buffer to a concentration up to threefold above the final concentration used in the reaction (bovine brain tubulin, no fluoresecent label). For microtubule-stimulated reactions in dose-response format, reactions were assembled by 1:1:1 mixture of 3x enzyme stock, 3x compound stock (in buffer with 6% DMSO), and 3x microtubule stock to each well. For microtubule-stimulated ATPase assays at tubulin concentrations > 2.5 µM, enzyme stock was supplemented with compound stock in pure DMSO (resulting in an intermediate DMSO concentration of 6%), and then the microtubule stock was added. […]
Assembled reaction mixtures (including enzyme, compound, and microtubules, if present) were incubated for 10 min before addition of ATP. […] The fraction of γ-phosphate hydrolyzed in each condition was quantified using FIJI.

Assay [2] addresses T2, human cytoplasmic dynein 1 (GFP-dynein 1, AA 1320–4646) (Homo sapiens, UniProt Q14204).
T2 construct: (AA 1320–4646 with additional valine [at position 4647], uniprot Q14204); protein A tag (followed by TEV-cleavable linker) (N, cleaved yes); made in house; host or cells: insect cells (baculovirus)
The assay can be described thus: Microtubule gliding (motility) assay with GFP-dynein 1. The class given is biochemical. An excerpt:
To examine the inhibition of dynein 1 by dynapyrazole-A in vitro we generated recombinant human protein. We expressed and purified a GFP-tagged human dynein 1 (AA 1320–4646) construct similar to the one we used for GFP-dynein 2. […] GFP-dynein 1 moves microtubules at 508 ± 60 nm/s (n = 5 independent experiments, 191 microtubules analyzed), a velocity expected based on studies of other mammalian dynein 1 homologs ([Yamada et al., 2008]). Under these conditions, ~97% of the filaments analyzed had velocities >50 nm/s (Figure 5—figure supplement 1). […] As has been previously noted for ciliobrevin D, the potency of dynapyrazole-A was sensitive to the protein (e.g. blocking agent, serum) concentration in solution (Figure 5—figure supplement 4), likely due to the hydrophobicity of these compounds (calculated logarithm of octanol:water partition coefficient [ClogP]: ciliobrevin D: 4.5; dynapyrazole-A: 4.2) ([Firestone et al., 2012]).
Reaction setup: A coverslip-based motility assay was adapted from similar assays reported previously ([Firestone et al., 2012]; [Schmidt et al., 2015]). A flow chamber assembled on a pre-cleaned microscope coverslide (3–5 µL chamber volume) was hydrated with buffer A (25 mM PIPES, 30 mM KCl, 5 mM MgCl2, 1 mM EGTA, 0.01% Triton X-100, 1 mM DTT, 20 µM taxol, pH 7.0 with KOH). Anti-GFP antibody (0.4 mg/mL, affinity purified rabbit antibody) was flowed into the chamber and allowed to adhere non-specifically to the glass for 20 s. The surface was blocked using 0.5 mg/mL α-casein in buffer A. Excess protein was then washed away with buffer A. GFP-dynein motor domain was diluted in buffer A supplemented with 1 mM DTT and 0.1 mM ATP (2 mM DTT final; GFP-dynein 2 diluted to: 180 nM; GFP-dynein 1 diluted to: 60 nM), flowed into the chamber and allowed to bind for 20 s. Excess protein was washed away with buffer A. Reaction mix (25 mM PIPES, 90 mM KCl, 6 mM MgCl2, 1 mM EGTA, 0.01% Triton X-100, 3 mM DTT, 20 µM taxol, 1 mM ATP, 1x oxygen scavenging system components [4.5 mg/mL glucose, 35 µg/mL catalase, 200 µg/mL glucose oxidase], 2% final DMSO [v/v] with compounds at appropriate concentrations, 0.05 mg/mL α-casein, microtubules [rhodamine labeled, purified from bovine brain, GMP-CPP and Taxol-stabilized], pH 7.0 with KOH) was flowed into the chamber using ~4 chamber volumes. For experiments shown in Figure 4—figure supplement 1, α-casein concentration in reaction mix was 0.5 mg/mL and all other parameters were held constant.
For reversibility experiments, motility in the presence of 5 µM 8 was observed as above, and upon completion of imaging, the chamber, fresh buffer A supplemented with 1 mM ATP was flowed into the chamber and incubated for 1 min; this wash and incubation cycle was repeated twice. Reaction mix containing DMSO (no compound) was flowed into the chamber using ~4 chamber volumes. The chamber was sealed with valap and returned to the microscope.
Microscopy conditions: Following addition of reaction mix, microtubules were allowed to bind for 5 min before imaging. For reversibility experiments, microtubules were allowed to bind for 10 min before imaging. […] Velocities were measured using the kymograph tool in FIJI ([Schindelin et al., 2012]). […]
Microtubule velocity measurements: the tracks of microtubules were traced and converted to kymographs (x axis-displacement, y axis-time) using the kymograph function of FIJI (RRID: SCR_002285). The angle formed between an edge of a microtubule and the horizontal was measured. […]

The mark [3] stands for this setting: 1 mM MgATP, 0.05 mg/mL casein, 2% DMSO, read-out: IC50, inhibition of GFP-dynein 1-driven motility.

Where two headings read alike, the source gives them in different places.

T2 sequence (Q14204 with tags, fused parts or gaps): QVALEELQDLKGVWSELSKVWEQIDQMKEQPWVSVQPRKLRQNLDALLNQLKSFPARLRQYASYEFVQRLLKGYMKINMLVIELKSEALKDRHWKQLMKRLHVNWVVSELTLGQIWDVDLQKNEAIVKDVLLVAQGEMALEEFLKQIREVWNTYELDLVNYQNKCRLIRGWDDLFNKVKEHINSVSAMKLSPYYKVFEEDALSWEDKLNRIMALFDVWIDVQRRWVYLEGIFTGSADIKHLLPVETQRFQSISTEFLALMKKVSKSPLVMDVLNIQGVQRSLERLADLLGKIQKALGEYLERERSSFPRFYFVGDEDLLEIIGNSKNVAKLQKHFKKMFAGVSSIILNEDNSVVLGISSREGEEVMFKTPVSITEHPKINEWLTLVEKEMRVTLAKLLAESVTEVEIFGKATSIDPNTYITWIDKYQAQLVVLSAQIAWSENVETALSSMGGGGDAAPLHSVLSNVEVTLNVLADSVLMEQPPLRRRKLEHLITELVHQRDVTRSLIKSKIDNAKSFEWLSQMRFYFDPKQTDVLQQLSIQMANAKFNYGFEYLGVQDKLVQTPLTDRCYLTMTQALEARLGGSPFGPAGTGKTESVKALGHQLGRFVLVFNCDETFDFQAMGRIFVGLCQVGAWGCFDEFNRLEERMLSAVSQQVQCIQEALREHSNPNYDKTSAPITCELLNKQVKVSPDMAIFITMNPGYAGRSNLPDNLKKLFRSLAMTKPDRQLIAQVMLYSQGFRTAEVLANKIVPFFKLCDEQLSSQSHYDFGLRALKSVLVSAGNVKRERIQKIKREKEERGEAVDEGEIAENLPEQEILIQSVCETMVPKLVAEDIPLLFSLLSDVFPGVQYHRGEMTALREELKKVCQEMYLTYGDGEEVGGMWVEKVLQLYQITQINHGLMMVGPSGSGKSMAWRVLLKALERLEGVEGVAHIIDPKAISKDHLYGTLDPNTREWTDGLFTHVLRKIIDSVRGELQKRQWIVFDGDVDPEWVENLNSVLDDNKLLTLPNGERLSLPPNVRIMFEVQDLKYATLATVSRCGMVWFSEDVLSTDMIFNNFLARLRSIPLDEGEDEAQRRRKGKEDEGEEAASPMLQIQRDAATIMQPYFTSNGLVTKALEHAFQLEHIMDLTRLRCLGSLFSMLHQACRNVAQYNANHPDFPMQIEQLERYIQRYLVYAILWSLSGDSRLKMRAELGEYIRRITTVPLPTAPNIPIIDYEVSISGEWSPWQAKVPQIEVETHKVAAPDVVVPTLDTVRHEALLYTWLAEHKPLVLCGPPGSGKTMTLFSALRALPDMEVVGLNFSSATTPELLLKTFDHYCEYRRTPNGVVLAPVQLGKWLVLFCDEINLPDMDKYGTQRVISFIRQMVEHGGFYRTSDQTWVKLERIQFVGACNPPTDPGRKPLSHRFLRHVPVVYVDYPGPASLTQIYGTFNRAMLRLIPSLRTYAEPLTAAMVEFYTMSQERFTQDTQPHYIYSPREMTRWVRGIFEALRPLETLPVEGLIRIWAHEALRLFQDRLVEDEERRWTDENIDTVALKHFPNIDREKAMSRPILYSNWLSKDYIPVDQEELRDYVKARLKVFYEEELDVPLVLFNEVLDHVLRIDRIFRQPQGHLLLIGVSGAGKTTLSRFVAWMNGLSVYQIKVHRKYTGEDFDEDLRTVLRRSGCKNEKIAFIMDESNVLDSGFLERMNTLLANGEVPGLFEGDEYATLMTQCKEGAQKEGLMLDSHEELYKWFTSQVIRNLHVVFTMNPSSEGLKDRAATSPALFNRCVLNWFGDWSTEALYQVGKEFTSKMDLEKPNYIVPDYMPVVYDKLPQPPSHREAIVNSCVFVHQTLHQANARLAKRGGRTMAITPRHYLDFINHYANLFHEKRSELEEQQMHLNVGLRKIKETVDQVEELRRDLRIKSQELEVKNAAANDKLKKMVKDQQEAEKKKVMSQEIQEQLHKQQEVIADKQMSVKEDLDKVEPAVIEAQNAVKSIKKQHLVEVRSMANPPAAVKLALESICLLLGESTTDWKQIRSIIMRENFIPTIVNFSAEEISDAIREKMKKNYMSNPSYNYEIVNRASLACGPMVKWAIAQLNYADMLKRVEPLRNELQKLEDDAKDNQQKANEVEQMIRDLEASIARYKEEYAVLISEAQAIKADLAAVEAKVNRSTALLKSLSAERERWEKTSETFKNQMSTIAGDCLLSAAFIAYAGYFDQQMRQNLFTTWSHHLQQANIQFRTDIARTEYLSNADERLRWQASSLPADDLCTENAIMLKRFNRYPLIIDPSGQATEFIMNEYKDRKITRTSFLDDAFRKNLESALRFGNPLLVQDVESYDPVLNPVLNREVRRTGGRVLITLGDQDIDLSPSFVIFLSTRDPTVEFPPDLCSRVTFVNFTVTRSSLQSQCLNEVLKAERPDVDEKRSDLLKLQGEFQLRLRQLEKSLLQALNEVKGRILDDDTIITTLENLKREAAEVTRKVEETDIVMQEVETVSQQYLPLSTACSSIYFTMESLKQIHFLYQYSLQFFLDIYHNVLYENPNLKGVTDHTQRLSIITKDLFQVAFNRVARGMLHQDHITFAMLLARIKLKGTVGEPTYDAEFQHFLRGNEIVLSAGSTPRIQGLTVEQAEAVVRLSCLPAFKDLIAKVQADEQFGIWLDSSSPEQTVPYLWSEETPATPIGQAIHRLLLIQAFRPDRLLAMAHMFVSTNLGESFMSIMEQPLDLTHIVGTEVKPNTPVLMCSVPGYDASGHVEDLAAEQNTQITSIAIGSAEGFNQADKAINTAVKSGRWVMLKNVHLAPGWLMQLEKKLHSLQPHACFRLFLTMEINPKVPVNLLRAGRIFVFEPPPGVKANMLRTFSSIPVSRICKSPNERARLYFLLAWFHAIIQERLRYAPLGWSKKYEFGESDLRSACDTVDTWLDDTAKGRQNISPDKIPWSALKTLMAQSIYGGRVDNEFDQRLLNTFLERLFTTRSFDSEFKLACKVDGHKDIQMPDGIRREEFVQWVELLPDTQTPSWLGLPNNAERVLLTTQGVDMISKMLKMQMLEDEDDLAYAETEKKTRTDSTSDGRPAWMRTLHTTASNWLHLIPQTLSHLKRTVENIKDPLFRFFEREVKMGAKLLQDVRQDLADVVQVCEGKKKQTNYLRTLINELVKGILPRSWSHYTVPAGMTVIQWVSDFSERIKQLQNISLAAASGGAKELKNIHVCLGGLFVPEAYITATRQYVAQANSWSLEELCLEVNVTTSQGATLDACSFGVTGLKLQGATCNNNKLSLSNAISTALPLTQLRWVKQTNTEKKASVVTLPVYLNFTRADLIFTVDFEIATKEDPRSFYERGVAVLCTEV
T1 sequence (Q14204 with tags, fused parts or gaps): as above

For `N#Cc1c(C2(c3ccc(Cl)cc3)CC2)nn2c1[nH]c(=O)c1cc(I)ccc12` [Compound 8, 2-[1-(4-chlorophenyl)cyclopropyl]-7-iodo-5-oxo-4H-pyrazolo[1,5-a]quinazoline-3-carbonitrile], in assay [1], the “Inhibition of basal ATPase activity of GFP-dynein 1” value is reported as “did not inhibit”. Moreover, in assay [2] (5 µM 8, then washout, 1 mM ATP, 0.05 mg/mL casein), the “Reversibility of inhibition of dynein-1-dependent microtubule gliding after washout” value was “reversed following washout”. In addition, the IC50 is 10.5 ± 4.6 µM in assay [2] (1 mM ATP, 0.5 mg/mL casein, read-out: IC50, inhibition of GFP-dynein 1-driven motility in the presence of 0.5 mg/ml casein) and 2.3 ± 1.4 µM in assay [2] (setting [3]). Moreover, the “Potency relative to ciliobrevin D, GFP-dynein-1-driven motility” value in assay [2] (more potent than ciliobrevin D) is on record as ~ 6 fold.
Take `N#C/C(C(=O)c1ccc(Cl)cc1Cl)=C1\NC(=O)c2ccc(Cl)cc2N1` [ciliobrevin D, reference compound]: the inhibition (usually the percentage by which the read-out fell short of the control) at 40 µM in assay [1] is approximately 70%. Further, the IC50 in assay [2] (setting [3]) was 15 ± 2.9 µM.
